Where “and” joins values, the source holds several entries; their conditions need not be identical. Equal values may be shown once.

The target of series [1] is T1, recombinant human Cox-1 (r-hu Cox1) (Homo sapiens, UniProt P23219).
T1 construct: made in house; host or cells: baculovirus/Sf9 insect cells (microsomes)
In words: Recombinant human PGHS-1 enzyme assay (RHUCX1). Format: biochemical. Particulars: for IC50: read-out: RHUCX1 IC50 (parenthetical value). The gist of the method: (§1)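 PGE2 formed with and without drug quantified by EIA against matrix-matched standards; percent inhibition relative to control mean, IC50 by linear regression.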

Series [2] addresses T2, recombinant human Cox-2 (r-hu Cox-2) (Homo sapiens, UniProt P35354).
T2 construct: made in house; host or cells: baculovirus/Sf9 insect cells (microsomes)
T2 sequence (P35354 18-604): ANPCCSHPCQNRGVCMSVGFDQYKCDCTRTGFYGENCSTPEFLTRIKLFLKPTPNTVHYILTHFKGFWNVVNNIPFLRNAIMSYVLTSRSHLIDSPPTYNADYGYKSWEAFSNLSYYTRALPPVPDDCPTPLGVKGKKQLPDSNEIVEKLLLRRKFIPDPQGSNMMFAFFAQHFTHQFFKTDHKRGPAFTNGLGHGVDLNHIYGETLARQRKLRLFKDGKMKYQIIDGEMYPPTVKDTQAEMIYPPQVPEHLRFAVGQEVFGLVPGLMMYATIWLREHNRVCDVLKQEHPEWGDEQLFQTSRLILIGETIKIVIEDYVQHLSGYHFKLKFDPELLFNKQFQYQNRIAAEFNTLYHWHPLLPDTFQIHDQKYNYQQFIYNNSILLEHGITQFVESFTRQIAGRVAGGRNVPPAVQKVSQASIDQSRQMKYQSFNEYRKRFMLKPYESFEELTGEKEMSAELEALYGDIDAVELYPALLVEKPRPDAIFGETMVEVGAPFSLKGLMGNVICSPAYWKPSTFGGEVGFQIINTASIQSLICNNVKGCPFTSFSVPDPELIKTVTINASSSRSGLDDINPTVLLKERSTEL
In words: Recombinant human PGHS-2 enzyme assay (RHUCX2). The series is classed as biochemical. Particulars: for IC50: read-out: RHUCX2 IC50 (parenthetical value). The gist of the method:
as §1

Series [3] has as its system prostaglandin biosynthesis in vivo (pleural lavage eicosanoids). In words: Rat carrageenan pleural inflammation (CIP) model. Particulars: 10 mpk oral; for inhibition in vivo at 10 mg/kg: 4 h, read-out: CIP % Inhib. @ 10 mpk. Here is the method: For oral administration, test compounds were suspended on the day of use in 100% polyethyleneglycol (PEG 400) with a motorized homogenizer equipped with a Teflon-coated pestle (TRI-R Instrument, Jamaica, N.Y.).
To compare the mean responses of the treatment groups, analysis of variance was applied. Percent inhibition values were determined by comparing the individual treatment mean values to the mean of the control group. Linear regression was used to estimate IC50's/ED50's in appropriate assays.
Pleural inflammation was induced in male adrenalectomized Sprague-Dawley rats following the method of Vinegar et al., Fed. Proc. 1976, 35, 2447-2456. Animals were orally dosed with experimental compounds, 30 minutes prior to the intrapleural injection of 2% lambda carrageenan (Sigma Chemical Co., St. Louis Mo.). Four hours later the animals were euthanized and the pleural cavities lavaged with ice cold saline. The lavage fluid was then added to two volumes of ice cold methanol (final methanol concentration 66%) to lyse cells and precipitate protein. Eicosanoids were determined by EIA as described above.

The subject of series [4] is carrageenan induced paw edema. In words: Carrageenan induced paw edema (CPE) in rats. Format: in vivo. Particulars: rat; for inhibition in vivo at 10 mg/kg / CPE % Inhib. @ 10 mpk: 10 mpk oral, 3 hours after carrageenan; for inhibition in vivo at 10 mg/kg: read-out: CPE % Inhib. @ 10 mpk. The method in brief:
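Male Sprague-Dawley rats (170–190 g) dosed orally in PEG 400, 1 h before subplantar 0.1 ml 1% lambda carrageenan in right hindpaw. Plethysmographic paw volume at 0 and 3 h; edema as difference, % inhibition versus control mean (±SEM), Dunnett's test, ED50 by linear regression.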
For orientation: The carrageenan paw model is a standard test of acute inflammation.

Series [5] concerns air pouch prostaglandin biosynthesis (Cox-2). In words: Carrageenan induced air pouch prostaglandin biosynthesis model (CAP). The series is classed as in vivo, rat. Particulars: 3 mpk, rat; for inhibition in vivo at 3 mg/kg: 4 h, read-out: CAP % Inhib. @ 3 mpk. The gist of the method: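 Male Sprague Dawley rats with dorsal air pouches (20 mL air day 0, 10 mL day 3) received 0.2% lambda carrageenan in saline into the pouch on day 7. Compounds dosed at 0.1 to 10 mg/kg 30 min before carrageenan; pouch lavaged 4 h later, prostaglandins measured by EIA. Percent inhibition versus control mean; ED50 by linear regression.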

Series [6] concerns the target T3, Human Whole Platelet Cyclooxygenase-1 (Homo sapiens, UniProt P23219).
T3 construct: from tissue; host or cells: human blood: isolated platelets (A4) or heparinised whole blood (A9)
In words: Human Whole Platelet Cyclooxygenase-1 assay (HWPX). The series is classed as cell-based. Particulars: read-out: HWPX IC50 (parenthetical value). The gist of the method: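 Washed platelets from healthy-donor ACD blood were pre-incubated with compound for 10 min, then stimulated with calcium ionophore A23187 (8.8 μM final) for 10 min. Reaction stopped with cold 6 mM EDTA; thromboxane in supernatants quantified with a commercial kit.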

In series [7] the target is T4, human amnionic whole cell cyclooxygenase-2 (WISH cells) (Homo sapiens, UniProt P35354).
T4 construct: endogenous in cells; host or cells: human amnionic WISH cells, induced with IL-1beta
T4 sequence (P35354 18-604): T2 sequence (P35354 18-604)
In words: IL-1β induced PGE2 production in WISH cells. Format: cell-based. Particulars: read-out: Wish IC50 (parenthetical value). The gist of the method: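 Confluent (80%) WISH cells were stimulated with 5 ng/ml IL-1β in serum-free Neuman-Tytell medium, with or without test compound in DMSO (0.01% v/v). PGE2 in the culture medium was measured by EIA against standards prepared in the same medium, read by optical density.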

[8] abbreviates: read-out: RHUCX1 % Inh. at Dose.
The mark [9] stands for this setting: read-out: RHUCX2 % Inh. at Dose.

T3 sequence (P23219 24-599): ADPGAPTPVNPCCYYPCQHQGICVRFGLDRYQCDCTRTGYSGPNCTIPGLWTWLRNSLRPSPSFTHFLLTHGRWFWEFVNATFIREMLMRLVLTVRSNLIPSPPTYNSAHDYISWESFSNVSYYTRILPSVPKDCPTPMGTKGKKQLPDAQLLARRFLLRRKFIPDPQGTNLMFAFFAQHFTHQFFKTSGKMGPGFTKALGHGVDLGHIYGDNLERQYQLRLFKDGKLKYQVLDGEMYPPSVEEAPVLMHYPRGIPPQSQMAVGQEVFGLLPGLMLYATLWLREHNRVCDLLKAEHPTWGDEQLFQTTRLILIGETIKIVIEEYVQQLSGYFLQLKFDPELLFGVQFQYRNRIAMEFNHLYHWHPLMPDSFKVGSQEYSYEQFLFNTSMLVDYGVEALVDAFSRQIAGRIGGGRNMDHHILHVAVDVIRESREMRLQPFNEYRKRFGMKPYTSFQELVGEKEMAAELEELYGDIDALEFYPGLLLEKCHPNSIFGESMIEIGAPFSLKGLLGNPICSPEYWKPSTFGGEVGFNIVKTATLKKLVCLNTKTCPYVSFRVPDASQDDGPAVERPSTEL
T1 sequence (P23219 24-599): as above

As usually defined, the IC50 is the concentration that inhibits the measured activity by half. For orientation: melting point means the temperature of the solid-liquid transition. `CS(=O)(=O)c1ccc(-c2cnn(CC(F)(F)F)c(=O)c2-c2ccc(Cl)cc2)cc1` [Example 58, 2-(2,2,2-Trifluoroethyl)-4-(4-chlorophenyl)-5-[4-(methylsulfonyl)phenyl]-3(2H)-pyridazinone] displayed a melting point of 55 to 57 °C. Moreover, the inhibition at 100 µM in series [1] (setting [8]) stood at 0%. Also, the IC50 in series [2] stood at 950 nM. Moreover, the inhibition in vivo at 10 mg/kg in series [3] was determined as 42%. Moreover, the inhibition in vivo at 10 mg/kg in series [4] worked out at 14%. Also, the inhibition in vivo at 3 mg/kg in series [5] is 67%.
Consider `CCCc1ccc(-c2c(-c3ccc(S(C)(=O)=O)cc3)cnn(CC(F)(F)F)c2=O)cc1` [Example 66, 2-(2,2,2-Trifluoroethyl)-4-(4-n-proylphenl)-5-[4-(methylsulfonyl)phenyl]-3(2H)-pyridazinone], for which, in series [3], the “CIP % Inhib. @ 10 mpk” value was found to be 59%. In addition, the “CPE % Inhib. @ 10 mpk” value in series [4] was 7%. Besides, the “CAP % Inhib. @ 3 mpk” value in series [5] is 0%.
As for `NS(=O)(=O)c1ccc(-c2cnn(CC(F)(F)F)c(=O)c2-c2ccc(Cl)cc2)cc1` [Example 69, 2-(2,2,2-Trifluoroethyl)-4-(4-chlorophenyl)-5-[4-(aminosulfonyl)phenyl]-3(2H)-pyridazinone], the melting point lay in the range of 154 to 156 °C. For the same compound, in series [1] (setting [8]), the inhibition at 100 µM is 2%. In series [2] (0.01 μM, read-out: RHUCX2 % Inh. at Dose), the inhibition at 0.01 µM was 30%. Besides, in series [2] (setting [9]), the inhibition at 0.1 µM was found to be 29% and the inhibition at 1 µM is 88%. Further, the IC50 in series [6] amounted to 1140 nM. For the same compound, the IC50 in series [7] stood at 20 nM. Further, the inhibition in vivo at 10 mg/kg in series [3] turned out to be 61%. In addition, the inhibition in vivo at 10 mg/kg in series [4] came to 45.5%. The “CPE ED30” value in series [4] (oral) is given as “ED30 = 5.4”. Besides, the inhibition in vivo at 3 mg/kg in series [5] amounted to 87%.
Consider `NS(=O)(=O)c1ccc(-c2cnn(CC(F)(F)F)c(=O)c2-c2ccc(Cl)c(F)c2)cc1` [Example 80, 2-(2,2,2-Trifluoroethyl)-4-(4-chloro-3-fluorophenyl)-5-[4-(aminosulfonyl)phenyl]-3(2H)-pyridazinone], for which the melting point fell in the range of 214 to 215 °C. For the same compound, the inhibition at 1 µM in series [1] (1 μM, read-out: RHUCX1 % Inh. at Dose) is 37%. Besides, the inhibition at 10 µM in series [1] (setting [8]) was found to be 41%. Also, in series [2], the half-maximal inhibitory concentration (IC50) came out at 64 nM. Also, the inhibition in vivo at 10 mg/kg in series [3] turned out to be 60%. Further, in series [4], the inhibition in vivo at 10 mg/kg was determined as 28.5%. Moreover, in series [5], the inhibition in vivo at 3 mg/kg came out at 91%.
Compound `NS(=O)(=O)c1ccc(-c2cnn(CC=C(Cl)Cl)c(=O)c2-c2ccc(F)cc2)cc1` [Example 119, 2-(3,3-Dichloro-2-2-propenyl)-4-(4-fluorophenyl)-5-[4-(aminosulfonyl)phenyl)-3(2H)-pyridazinone] gave a melting point of 184 to 185 °C. In addition, the IC50 in series [1] was 178 nM. The IC50 in series [2] amounted to 27 nM. Further, in series [6], the IC50 was found to be 76 nM. In addition, the IC50 in series [7] turned out to be 1 nM. For the same compound, the inhibition in vivo at 10 mg/kg in series [3] amounted to 82%. Further, in series [4], the inhibition in vivo at 10 mg/kg was 27%. Further, in series [5], the inhibition in vivo at 3 mg/kg is 76%.
`CS(=O)(=O)c1ccc(-c2cnn(-c3ccc(F)c(F)c3)c(=O)c2-c2ccc(F)cc2)cc1` [Example 182, 2-(3,4-Difluorophenyl)-4-(4-fluorophenyl)-5-[4-(methylsulfonyl)phenyl]-3(2H)-pyridazinone] gave a melting point of 109 to 110 °C. In addition, in series [1], the IC50 was 5010 nM. In series [2], the IC50 was found to be 70 nM. Also, the inhibition in vivo at 10 mg/kg in series [3] is 59%. Further, in series [4], the inhibition in vivo at 10 mg/kg was determined as 27%. In addition, in series [5], the inhibition in vivo at 3 mg/kg came out at 98%.
On to `CS(=O)(=O)c1ccc(-c2cnn(-c3ccccc3F)c(=O)c2-c2ccc(F)cc2)cc1` [Example 185, 2-(2-Fluorophenyl)-4-(4-fluorophenyl)-5-[4-(methlsulfonyl)phenyl]-3(2H)-pyridazinone], for which the “CIP % Inhib. @ 10 mpk” value in series [3] is 59%. The “CPE % Inhib. @ 10 mpk” value in series [4] was 20%. Further, the “CAP % Inhib. @ 3 mpk” value in series [5] was found to be 53%.
`CS(=O)(=O)c1ccc(-c2cnn(-c3ccc(F)c(Cl)c3)c(=O)c2-c2ccc(F)cc2)cc1` [Example 187, 2-(3-Chloro-4-fluorophenyl)-4-(4-fluorophenyl)-5-[4-(methylsulfonyl)phenyl]-3(2H)-pyridazinone]: the melting point lay within 155 to 157 °C. For the same compound, the inhibition at 100 µM in series [1] (setting [8]) worked out at 2%. Further, the IC50 in series [2] was determined as 94 nM. For the same compound, the IC50 in series [6] was 12600 nM. Moreover, the IC50 in series [7] was found to be 15 nM. In addition, in series [3], the inhibition in vivo at 10 mg/kg is 51%. Also, in series [4], the inhibition in vivo at 10 mg/kg is 28%. For the same compound, the inhibition in vivo at 3 mg/kg in series [5] worked out at 30%.
Regarding `CS(=O)(=O)c1ccc(-c2cnn(-c3ccc(Cl)c(F)c3)c(=O)c2-c2ccc(F)cc2)cc1` [Example 190], the melting point lay within 102 to 110 °C. Moreover, the IC50 in series [1] was 1880 nM. For the same compound, the IC50 in series [2] stood at 134 nM. The IC50 in series [6] was 9960 nM. Besides, in series [7], the IC50 is 30 nM. Besides, the inhibition in vivo at 10 mg/kg in series [3] was found to be 60%. The inhibition in vivo at 10 mg/kg in series [4] was determined as 28%. Moreover, in series [5], the inhibition in vivo at 3 mg/kg was found to be 71%.
Take `NS(=O)(=O)c1ccc(-c2cnn(Cc3ccccc3)c(=O)c2-c2ccc(F)cc2)cc1` [Example 384, 2-Benzyl-4-(4-fluorophenyl)-5-[4-(aminosulfonyl)phenyl]-3(2H)-pyridazinone]: the melting point is 185 to 189 °C and 188 to 191 °C. Moreover, in series [1] (setting [8]), the inhibition at 10 µM came out at 49% and the inhibition at 100 µM was 82%. In series [2] (setting [9]), the inhibition at 0.1 µM came out at 78% and the inhibition at 1 µM amounted to 99%. The inhibition in vivo at 10 mg/kg in series [3] is 51%. For the same compound, the inhibition in vivo at 10 mg/kg in series [4] turned out to be 15%. Further, in series [5], the inhibition in vivo at 3 mg/kg is 51%.
As to `NS(=O)(=O)c1ccc(-c2cnn(-c3ccc(F)c(F)c3)c(=O)c2-c2ccc(F)cc2)cc1` [Example 400], the melting point is 177 to 181 °C. The inhibition at 100 µM in series [1] (setting [8]) is 27%. Further, the IC50 in series [2] was 142 nM. Further, the IC50 in series [6] worked out at 300 nM. Besides, the IC50 in series [7] stood at 26 nM. For the same compound, the inhibition in vivo at 10 mg/kg in series [3] came to 65%. Moreover, the inhibition in vivo at 10 mg/kg in series [4] was 41%. Also, the inhibition in vivo at 3 mg/kg in series [5] was 82.5%.

(Values after patent US20020028938A1, “Prostaglandin endoperoxide H synthase biosynthesis inhibitors” (priority 1997, published 2002).)
